Test results taken from US11413278B2, “Compounds and methods for promoting stress resistance” (priority 2015, dated 2022).
Read-outs that look alike come from different tables or passages of the source.

Assays:
FOXO3 = FOXO3 siRNA knockdown: dependency for H2O2-resistance; format: cell-based, human; conditions: for FOXO3-dependency for H2O2-resistance, at 10 uM - with H2O2, 1st experiment: experiment 1 (1st); for FOXO3-dependency for H2O2-resistance (experiment 3): with & without H2O2, FOXO3 knockdown in WI-38 cells; for Assay 16: FOXO3-dependency for H2O2-resistance: YES/NO; for Requirement of FOXO3 to promote H2O2-resistance: FOXO3 siRNA, at least 2 of 3 independent experiments
[1] = tested on: PC12 cells expressing poly(Q)103-Htt-EGFP; assay: Poly(Q) toxicity & viability analysis (cellular model of Huntington's disease); format: cell-based, rat; conditions: for M = Huntington's poly-Q toxicity attenuation: score; for K = Huntington's poly-Q toxicity attenuation: summary score
Method in brief: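 PC12 cells stably carrying inducible poly(Q)103-Htt-EGFP, whose induced expression causes aggregation and toxicity. Viability read 48 hrs later as ATP content by CellTiter-Glo.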

C. elegans = C. elegans lifespan assays (liquid and plate); format: in vivo, Caenorhabditis elegans; conditions: for ILS at 60 µM / ILS at 66 µM: Caenorhabditis elegans; for Extension of C. elegans' lifespan (qualitative): in at least 3 to 4 trials, group range ~10% to ~50%; for O = Life span- extending scores in worms: score scale 0 to 2, 4 to 6 independent trials; for M = Lifespan-extending scores in worms: summary score
[2] = tested on: phosphorylated γH2A.X and TP53BP1; assay: DNA damage marker analysis (immuno-staining); conditions: for activity at 10 µM: Homo sapiens, WI-38, 24 h; for P = Potential DNA-damaging / R = Potential DNA damaging: human, 24 h
Method in brief: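 WI-38 cells were cultured 24 h, then treated with compounds for 24 h; H2O2 (700 μM, 3 h) and doxorubicin (300 nM, 24 h) served as DNA-damage controls. After fixation, cells were immunostained for phospho-γH2A.X (Ser-139) and phospho-TP53BP1 (Ser-1778), counterstained with DAPI, and imaged by automated high-content microscopy.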

[3] = in liquid, wild type, with FuDR, 1.0 × 10^9 bacteria/ml, read-out: relative change of mean lifespan vs control, Trial 1
[4] = in liquid, wild type, with FuDR, 2.5 × 10^9 bacteria/ml, read-out: relative change of mean lifespan vs control, Trial 2
[5] = on plate, CF512 temperature-sensitive sterile animals, without FuDR, 2.0 × 10^10 bacteria/ml, read-out: relative change of mean lifespan vs control, Trial 3
[6] = Assay 2(z), 1.0 × 10^9 bacteria/ml, wild type + FuDR (2012 July), read-out: Lifespan assay in liquid
[7] = Assay 3(aa), 2.5 × 10^9 bacteria/ml, wild type + FuDR, read-out: Lifespan assay in liquid
[8] = Assay 4(ab), 2.0 × 10^10 bacteria/ml, CF512 worms, no FuDR, read-out: Lifespan assay on plates
[9] = read-out: Experiment 1, H2A.X-P DNA damage foci staining (no H2O2 stress treatment), at 10 uM
[10] = read-out: Experiment 2, H2A.X-P DNA damage foci staining (no H2O2 stress treatment), at 10 uM
[11] = read-out: Experiment 2, H2A.X-P DNA damage foci staining (under H2O2 stress treatment), at 10 uM
[12] = read-out: Experiment 2, TP53BP1-P DNA damage foci staining (no H2O2 stress treatment), at 10 uM
[13] = read-out: Experiment 2, TP53BP1-P DNA damage foci staining (under H2O2 stress treatment), at 10 uM
[14] = 10 uM, YES = resistance reduced by at least 50%, partial = 25% to 50%
[15] = 10 uM, with H2O2, FOXO3 knockdown in WI-38 cells, YES = resistance reduced by at least 50%, partial = 25% to 50%
[16] = on plate, CF512 temperature-sensitive sterile animals, without FuDR, 1.0 × 10^11 bacteria/ml, read-out: relative change of mean lifespan vs control, Trial 4
[17] = Assay 5(ac), 1.0 × 10^11 bacteria/ml, CF512 worms, no FuDR, read-out: Lifespan assay on plates

| Compound | I = FOXO3-dependency for H2O2-resistance (FOXO3; score) | I = FOXO3-dependency for H2O2-resistance (FOXO3; summary score) | M = Huntington's poly-Q toxicity attenuation [1] | K = Huntington's poly-Q toxicity attenuation [1] | ILS at 60 µM (C. elegans; [3]) [%] | ILS at 60 µM (C. elegans; [4]) [%] | ILS at 60 µM (C. elegans; [5]) [%] | ILS at 66 µM (C. elegans; [6]) [%] | ILS at 66 µM (C. elegans; [7]) [%] | ILS at 66 µM (C. elegans; [8]) [%] | Extension of C. elegans' lifespan (qualitative) (C. elegans) | O = Life span- extending scores in worms (C. elegans) | M = Lifespan-extending scores in worms (C. elegans) | activity at 10 µM [2, 9] [%] | activity at 10 µM [2, 10] [%] | activity at 10 µM [2, 11] [%] | activity at 10 µM [2, 12] [%] | activity at 10 µM [2, 13] [%] | P = Potential DNA-damaging [2] | R = Potential DNA damaging [2] | also measured |
| --- | --- | --- | --- | --- | --- | --- | --- | --- | --- | --- | --- | --- | --- | --- | --- | --- | --- | --- | --- | --- | --- |
| N=C1S/C(=C\c2cn(-c3ccccc3)nc2-c2cccs2)C(=O)N1c1nccs1 [Gr-6C] | 0 | 0 | 0 | 0 | 20.5 | 12.4 | 9.4 | 20.5 | 12.4 | 9.4 | could extend animal's lifespan | 2 (2 for observed in more than 2 trials) | 2 (2 for observed in more than 2 trials) | 181 | 300 | 43 | 290 | 440 | 1 | 1 | Trials with lifespan extension (C. elegans; positive of total trials): 3 of 3 |
| O=C(NCc1cccnc1)/C(=C\c1cccc(Oc2ccccc2)c1)S(=O)(=O)c1ccccc1 [Gr-7A] | 1 | 1 | 0 | 0 | 40.6 | 16.2 | 13.9 | 40.6 | 16.2 | 13.9 | could extend animal's lifespan | 2 (2 for observed in more than 2 trials) | 2 (2 for observed in more than 2 trials) | 337 | 246 | 113 | 363 | 516 | 0 | 0 | FOXO3-dependency for H2O2-resistance, at 10 uM - with H2O2, 1st experiment (FOXO3; 10 uM, with H2O2): 1st, partial;; FOXO3-dependency for H2O2-resistance, at 10 uM - with H2O2, 2nd experiment (FOXO3; 10 uM, experiment 2 (2nd), with H2O2): 2nd, YES.; FOXO3-dependency for H2O2-resistance, at 10 uM (experiment 3) - with & without H2O2 (FOXO3; 10 uM): YES; FOXO3-dependency for H2O2-resistance (experiment 3) (FOXO3; [14]): YES; FOXO3-dependency for H2O2-resistance, 1st experiment (FOXO3; [15]): partial;; FOXO3-dependency for H2O2-resistance, 2nd experiment (FOXO3; [15]): YES.; Assay 16: FOXO3-dependency for H2O2-resistance (FOXO3; 10 uM): YES; Requirement of FOXO3 to promote H2O2-resistance (FOXO3): required FOXO3; ILS at 60 µM (C. elegans; [16]): 2.7%; ILS at 66 µM (C. elegans; [17]): 2.7% |
| O=C(NCc1cccnc1)/C(=C\c1ccc(Br)cc1)S(=O)(=O)c1ccccc1 [Gr-7B] | 0 | 0 | 0 | 0 | 1.3 | 3.5 | 14.9 | 1.3 | 3.5 | 14.9 |  | 0 | 0 | 695 | 348 | 74 | 31.3 | 4.2 | 0 | 0 |  |
| O=C(NCc1cccnc1)/C(=C/c1ccc(-c2ccc(Cl)cc2)o1)S(=O)(=O)c1ccccc1 [Gr-7C] | 1 | 1 | 1 | 1 | -29.1 | 10.1 | -41.6 | -29.1 | 10.1 | -41.6 |  | 0 | 0 | 132 | 135 | 82.9 | 196 | 369 | 0 | 0 | FOXO3-dependency for H2O2-resistance, at 10 uM - with H2O2, 1st experiment (FOXO3; 10 uM, with H2O2): 1st, YES;; FOXO3-dependency for H2O2-resistance, at 10 uM (experiment 3) - with & without H2O2 (FOXO3; 10 uM): Partial; FOXO3-dependency for H2O2-resistance (experiment 3) (FOXO3; [14]): Partial; FOXO3-dependency for H2O2-resistance, 1st experiment (FOXO3; [15]): YES;; Assay 16: FOXO3-dependency for H2O2-resistance (FOXO3; 10 uM): YES; Requirement of FOXO3 to promote H2O2-resistance (FOXO3): required FOXO3; Viability of PC12 cells upon induction of toxic poly(Q)103-Htt-EGFP aggregates ([1]; 2.5 μM, 5 μM, 10 μM and 20 μM): consistently increased the viability; Assay 20: Huntington's poly-Q toxicity attenuation ([1]; 10 uM, YES/NO): YES |
| O=C1NCCCc2cc(Cl)sc21 [O1] | 0 | 0 | 0 | 0 | 1.8 | -1.7 | 22.1 | 1.8 | -1.7 | 22.1 |  | 0 | 0 | 102 | 104 | 216 | 143 | 336 | 0 | 0 | ILS at 60 µM (C. elegans; [16]): -2.2%; ILS at 66 µM (C. elegans; [17]): -2.2% |
| CC1C(=O)C(C)C(c2cc(Cl)ccc2O)NC1c1cc(Cl)ccc1O (centres unmarked) [O6] | 0 | 0 | 0 | 0 | 28.3 | 10.3 | 3.9 | 28.3 | 10.3 | 3.9 |  | 1 (1 for lifespan extension observed in 2 trials) | 1 (1 for lifespan extension observed in 2 trials) | 122 | 87.7 | 130 | 86.3 | 538 | 0 | 0 |  |
